These results are taken from patent US20120122860A1, “SOLID FORMS OF SULFONAMIDES AND AMINO ACIDS” (Plexxikon, Inc., priority 2009, published 2012).

SMILES strings stand for the structures.

One data set addresses B-Raf (Homo sapiens, UniProt P15056). In words: Kinase activity assay, B-Raf. It is filed as biochemical. Conditions: read-out: activity toward kinase B-Raf, IC50.
A further data set concerns the target B-Raf V600E (Homo sapiens, UniProt P15056, V600E). In words: Kinase activity assay, B-Raf V600E. It is filed as biochemical. Conditions: read-out: activity toward kinase B-Raf V600E, IC50.
For a further data set, the target named is Fms (Homo sapiens, UniProt P07333). Put plainly: Kinase activity assay, Fms.
The target in a further data set is Kdr (Homo sapiens, UniProt P35968). In words: Kinase activity assay, Kdr.
The target in the next data set is Kit (Homo sapiens, UniProt P10721). In words: Kinase activity assay, Kit.
The next data set concerns the target Src (Homo sapiens, UniProt P12931). Put plainly: Kinase activity assay, Src.
The next data set deals with Flt1 (Homo sapiens, UniProt P17948). Put plainly: Kinase activity assay, Flt1.
Another data set deals with C-Raf (Homo sapiens, UniProt P04049). Put plainly: Kinase activity assay, C-Raf.
Data set [1] in a line: Dog PK study of solid forms and formulations. It is filed as in vivo, Beagle dogs. The procedure:
Pharmacokinetic properties of various compositions prepared from the complexes may be assessed in male Sprague Dawley rats or male Beagle dogs, and compared to the properties of the free base compound. Rats are dosed daily with compound either by IV injections via surgically implanted jugular catheters or by oral gavage (PO). Each compound is prepared as a 20 mg/mL stock solution in dimethyl sulfoxide, which is further diluted to provide the dosing stock at the desired concentration for the IV or PO formulations. For IV dosing, the dosing stock is diluted into a 1:1:8 mixture of Solutol®:ethanol:water. For PO dosing, the dosing stock is diluted into 1% methylcellulose. In a cassette format, 5 compounds are diluted to 0.5 mg/mL each for IV dosing and 0.4 mg/mL each for PO dosing and dosed at 1 mg/kg (2 mL/kg) or 2 mg/kg (5 mL/kg), respectively. For IV dosed animals, tail vein blood samples are collected with lithium heparin anticoagulant at 5, 15, 30, and 60 minutes and 4, 8, and 24 hours post dosing each day. For PO dosed animals, tail vein blood samples are collected with lithium heparin anticoagulant at 30 minutes, 1, 2, 4, 8 and 24 hours post dosing each day. Dogs are dosed daily by oral capsules in a suitable formulation at 50 mg/mL. Cephalic vein blood samples are collected with lithium heparin anticoagulant at 30 minutes, 1, 2, 4, 8 and 24 hours post dosing each day. All samples are processed to plasma and frozen for later analysis of each compound by LC/MS/MS. Plasma levels as a function of time are plotted to assess the AUC (ng*hr/mL).
The arginine complex of N-[3-(5-chloro-1H-pyrrolo[2,3-b]pyridine-3-carbonyl)-2,4-difluoro-phenyl]-4-trifluoromethyl-benzenesulfonamide P-1021 was analyzed in a number of dog PK studies following the above or similar protocols. These were done primarily at Bridge Laboratories, Beijing, China, with one study done at Seventh Wave Laboratories LLC, Chesterfield, Mo. Plasma samples were analyzed to determine the plasma concentration (PPD Development, Madison, Wis.) at each time point from which the Cmax and AUC∞ were determined. In some instances, the materials are combined in the solvents indicated, and the solvent is removed by evaporation, or by spray drying where indicated. In these tables, unless indicated otherwise, the dose is mg/dog, and the Cmax/dose ((ng/mL)/(mg/kg)) and the AUC∞/dose ((ng*hr/mL)/(mg/kg)) are calculated assuming a 10 kg weight for the dogs.
This study was done at Seventh Wave, containers were provided with 13.259 g, 39.776 g or 66.301 g of this formulation and suspended in 360 mL of 1.5% Polysorbate 20 vehicle and dosed by oral gavage.
N-[3-(5-chloro-1H-pyrrolo[2,3-b]pyridine-3-carbonyl)-2,4-difluoro-phenyl]-4-trifluoromethyl-benzenesulfonamide P-1021 was analyzed in a dog PK study wherein the arginine complex of N-[3-(5-cyano-1H-pyrrolo[2,3-b]pyridine-3-carbonyl)-2,4-difluoro-phenyl]-4-trifluoromethyl-benzenesulfonamide P-1092 was also assessed.

[2] abbreviates: Table 5B, forms of P-1021, dog, dose 150 mg/dog, 10 kg weight assumed.
The mark [3] stands for this setting: Table 7B, P-1021 arginine complex, dog, dose 200 mg/dog, 10 kg weight assumed.
Where [4] appears, read: Table 7B, P-1021 arginine complex, dog, dose 400 mg/dog, 10 kg weight assumed.
The mark [5] stands for this setting: Table 8B, P-1021 arginine complex, dog, oral gavage, dose 249 mg/kg.
Setting [6] is: Table 8B, P-1021 arginine complex, dog, oral gavage, dose 795 mg/kg.
[7] abbreviates: Table 8B, P-1021 arginine complex, dog, oral gavage, dose 965 mg/kg.
Setting [8] is: test articles are solid forms of P-1021, dog, oral, 100 mg/dog, calculated assuming a 10 kg weight.

Sequence of Src (P12931 whole entry): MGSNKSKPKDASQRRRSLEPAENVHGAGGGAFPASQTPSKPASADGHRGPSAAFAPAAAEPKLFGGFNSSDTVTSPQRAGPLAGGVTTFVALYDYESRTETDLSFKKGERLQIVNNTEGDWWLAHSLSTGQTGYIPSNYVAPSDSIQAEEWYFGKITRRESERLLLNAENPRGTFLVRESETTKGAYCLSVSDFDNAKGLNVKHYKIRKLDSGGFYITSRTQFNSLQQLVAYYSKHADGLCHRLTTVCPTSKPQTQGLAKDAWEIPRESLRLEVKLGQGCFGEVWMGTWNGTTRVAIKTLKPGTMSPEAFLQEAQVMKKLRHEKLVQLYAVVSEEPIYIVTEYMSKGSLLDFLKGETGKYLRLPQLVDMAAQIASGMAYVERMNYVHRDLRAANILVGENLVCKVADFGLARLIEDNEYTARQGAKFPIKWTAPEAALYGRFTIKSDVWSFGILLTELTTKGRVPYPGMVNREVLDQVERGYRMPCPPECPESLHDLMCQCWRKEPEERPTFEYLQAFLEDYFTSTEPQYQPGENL
Sequence of Kit (P10721 26-976): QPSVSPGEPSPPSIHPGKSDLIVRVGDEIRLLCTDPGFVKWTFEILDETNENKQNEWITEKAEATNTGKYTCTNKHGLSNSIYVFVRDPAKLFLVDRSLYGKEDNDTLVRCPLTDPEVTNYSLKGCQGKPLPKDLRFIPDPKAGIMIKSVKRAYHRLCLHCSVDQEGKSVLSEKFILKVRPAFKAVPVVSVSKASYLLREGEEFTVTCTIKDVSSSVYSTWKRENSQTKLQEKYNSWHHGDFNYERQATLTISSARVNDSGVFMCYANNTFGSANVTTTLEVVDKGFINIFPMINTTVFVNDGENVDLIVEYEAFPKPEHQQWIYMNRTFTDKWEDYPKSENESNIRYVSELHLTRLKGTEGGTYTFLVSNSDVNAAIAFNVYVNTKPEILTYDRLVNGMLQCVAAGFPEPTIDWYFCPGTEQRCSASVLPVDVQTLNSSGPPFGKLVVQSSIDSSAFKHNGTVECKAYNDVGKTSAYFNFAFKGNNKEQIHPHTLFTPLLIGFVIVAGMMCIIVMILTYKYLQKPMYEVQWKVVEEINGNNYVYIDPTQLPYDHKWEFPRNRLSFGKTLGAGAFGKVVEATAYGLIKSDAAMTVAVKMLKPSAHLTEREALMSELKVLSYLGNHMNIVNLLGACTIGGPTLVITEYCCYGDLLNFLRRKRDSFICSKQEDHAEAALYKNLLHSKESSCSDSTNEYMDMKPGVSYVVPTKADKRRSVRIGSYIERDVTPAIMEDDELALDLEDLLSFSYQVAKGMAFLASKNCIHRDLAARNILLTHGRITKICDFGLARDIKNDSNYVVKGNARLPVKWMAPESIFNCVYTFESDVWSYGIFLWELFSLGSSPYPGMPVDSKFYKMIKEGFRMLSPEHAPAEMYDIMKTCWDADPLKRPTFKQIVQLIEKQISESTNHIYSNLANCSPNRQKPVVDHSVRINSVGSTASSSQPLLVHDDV
Sequence of C-Raf (P04049 whole entry): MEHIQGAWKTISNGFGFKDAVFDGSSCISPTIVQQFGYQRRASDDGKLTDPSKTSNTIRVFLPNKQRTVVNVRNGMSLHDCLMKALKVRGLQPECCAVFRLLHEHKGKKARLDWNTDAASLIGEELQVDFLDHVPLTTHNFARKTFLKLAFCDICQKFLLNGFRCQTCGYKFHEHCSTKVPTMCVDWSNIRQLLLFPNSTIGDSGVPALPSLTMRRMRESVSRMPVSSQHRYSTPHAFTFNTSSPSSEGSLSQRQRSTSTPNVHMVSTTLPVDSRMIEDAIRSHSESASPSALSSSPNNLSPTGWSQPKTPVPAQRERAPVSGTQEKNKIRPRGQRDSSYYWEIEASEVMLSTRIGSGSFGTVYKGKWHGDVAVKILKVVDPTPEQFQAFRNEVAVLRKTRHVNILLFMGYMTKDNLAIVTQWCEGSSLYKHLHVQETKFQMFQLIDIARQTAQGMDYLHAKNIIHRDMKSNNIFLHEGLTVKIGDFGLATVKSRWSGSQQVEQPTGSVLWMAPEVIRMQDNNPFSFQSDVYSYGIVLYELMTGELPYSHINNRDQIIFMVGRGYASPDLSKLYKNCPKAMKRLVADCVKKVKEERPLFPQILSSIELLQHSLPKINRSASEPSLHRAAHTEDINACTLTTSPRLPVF
Sequence of Kdr (P35968 20-1356): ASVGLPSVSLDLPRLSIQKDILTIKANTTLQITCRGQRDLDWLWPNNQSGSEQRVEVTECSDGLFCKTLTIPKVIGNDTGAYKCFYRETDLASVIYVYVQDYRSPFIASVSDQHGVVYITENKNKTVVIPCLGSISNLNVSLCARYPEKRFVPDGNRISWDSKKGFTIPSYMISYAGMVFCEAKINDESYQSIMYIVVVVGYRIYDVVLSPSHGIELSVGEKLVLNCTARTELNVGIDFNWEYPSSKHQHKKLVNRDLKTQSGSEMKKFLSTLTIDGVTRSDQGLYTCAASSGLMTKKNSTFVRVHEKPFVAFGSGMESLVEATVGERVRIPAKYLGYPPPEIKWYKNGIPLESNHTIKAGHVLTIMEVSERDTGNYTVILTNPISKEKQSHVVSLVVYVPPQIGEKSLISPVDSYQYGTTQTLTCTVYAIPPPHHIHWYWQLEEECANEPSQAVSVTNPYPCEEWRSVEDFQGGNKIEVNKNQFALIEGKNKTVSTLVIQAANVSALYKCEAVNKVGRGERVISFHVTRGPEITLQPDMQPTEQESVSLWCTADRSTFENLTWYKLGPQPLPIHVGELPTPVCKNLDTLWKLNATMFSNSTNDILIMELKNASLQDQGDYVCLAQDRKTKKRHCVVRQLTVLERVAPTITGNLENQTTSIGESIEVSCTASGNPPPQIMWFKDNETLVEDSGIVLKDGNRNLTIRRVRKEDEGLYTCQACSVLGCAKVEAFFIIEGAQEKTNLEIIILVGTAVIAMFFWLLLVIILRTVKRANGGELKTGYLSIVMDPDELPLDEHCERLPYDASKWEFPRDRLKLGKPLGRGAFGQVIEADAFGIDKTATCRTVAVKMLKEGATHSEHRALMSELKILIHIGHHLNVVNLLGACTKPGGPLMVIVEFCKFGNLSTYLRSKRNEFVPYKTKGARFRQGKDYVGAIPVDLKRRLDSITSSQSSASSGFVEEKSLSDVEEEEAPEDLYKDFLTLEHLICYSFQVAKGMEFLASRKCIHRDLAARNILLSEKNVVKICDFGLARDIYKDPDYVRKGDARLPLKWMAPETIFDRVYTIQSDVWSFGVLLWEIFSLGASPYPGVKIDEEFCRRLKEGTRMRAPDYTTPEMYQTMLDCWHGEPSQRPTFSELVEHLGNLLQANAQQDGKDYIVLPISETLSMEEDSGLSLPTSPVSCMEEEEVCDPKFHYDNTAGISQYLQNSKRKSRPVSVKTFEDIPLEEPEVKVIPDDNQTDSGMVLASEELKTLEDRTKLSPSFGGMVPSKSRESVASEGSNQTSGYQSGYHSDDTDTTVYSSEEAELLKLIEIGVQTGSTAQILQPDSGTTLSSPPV
Sequence of B-Raf V600E (P15056 whole entry V600E): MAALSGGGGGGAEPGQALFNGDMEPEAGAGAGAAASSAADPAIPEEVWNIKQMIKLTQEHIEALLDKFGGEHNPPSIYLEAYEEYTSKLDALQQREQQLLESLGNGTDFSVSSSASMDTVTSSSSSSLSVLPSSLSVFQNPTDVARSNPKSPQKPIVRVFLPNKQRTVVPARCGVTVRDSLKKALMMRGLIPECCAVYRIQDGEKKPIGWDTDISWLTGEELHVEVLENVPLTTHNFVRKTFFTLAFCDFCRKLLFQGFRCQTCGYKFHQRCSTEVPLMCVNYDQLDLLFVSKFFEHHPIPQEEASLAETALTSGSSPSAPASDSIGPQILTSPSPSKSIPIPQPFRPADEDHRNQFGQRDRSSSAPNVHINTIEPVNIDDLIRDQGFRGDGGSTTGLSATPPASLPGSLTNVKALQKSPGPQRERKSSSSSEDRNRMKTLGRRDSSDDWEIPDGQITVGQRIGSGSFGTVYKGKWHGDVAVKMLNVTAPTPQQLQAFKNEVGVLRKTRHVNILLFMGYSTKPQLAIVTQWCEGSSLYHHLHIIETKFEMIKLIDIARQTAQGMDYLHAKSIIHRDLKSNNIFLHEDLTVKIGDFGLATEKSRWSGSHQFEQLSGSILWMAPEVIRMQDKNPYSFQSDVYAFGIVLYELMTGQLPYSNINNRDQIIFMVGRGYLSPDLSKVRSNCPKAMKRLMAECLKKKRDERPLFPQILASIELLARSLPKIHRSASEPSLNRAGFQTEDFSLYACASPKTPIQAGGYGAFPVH
Sequence of B-Raf (P15056 whole entry): as the sequence (P15056 whole entry V600E) above, with E600V counted along it

In the case of `CCCS(=O)(=O)Nc1ccc(F)c(C(=O)c2c[nH]c3ncc(-c4ccc(C(=O)NCC)nc4)cc23)c1F` [P-2151, 5-{3-[2,6-Difluoro-3-(propane-1-sulfonylamino)-benzoyl]-1H-pyrrolo[2,3-b]pyridin-5-yl}-pyridine-2-carboxylic acid ethylamide], the IC50 on B-Raf, on B-Raf V600E, against Fms, at Kdr, on Kit and at Src was at most 10 µM throughout. Moreover, the IC50 on Flt1 and against C-Raf was at most 10 µM each time.

As for `CCCS(=O)(=O)Nc1ccc(F)c(C(=O)c2c[nH]c3ncc(C(=O)NC4CC4)cc23)c1F` [P-2201, 3-[2,6-Difluoro-3-(propane-1-sulfonylamino)-benzoyl]-1H-pyrrolo[2,3-b]pyridine-5-carboxylic acid cyclopropylamide], the IC50 on B-Raf, on B-Raf V600E, against Fms, against Kdr, against Kit and against Flt1 was at most 10 µM throughout. This molecule displayed an IC50 at C-Raf of at most 10 µM.

As for `CCCS(=O)(=O)Nc1cccc(C(=O)c2c[nH]c3ncc(C(=O)OC)cc23)c1F` [P-2404, 3-[2-Fluoro-3-(propane-1-sulfonylamino)-benzoyl]-1H-pyrrolo[2,3-b]pyridine-5-carboxylic acid methyl ester], the IC50 at B-Raf, on B-Raf V600E, at Fms, on Kdr, at Flt1 and on C-Raf was at most 10 µM throughout.

As to `CCCS(=O)(=O)Nc1ccc(F)c(C(=O)c2c[nH]c3ncc(-c4cncnc4)cc23)c1F` [P-2162, Propane-1-sulfonic acid [2,4-difluoro-3-(5-pyrimidin-5-yl-1H-pyrrolo[2,3-b]pyridine-3-carbonyl)-phenyl]-amide], the IC50 on B-Raf, at B-Raf V600E, against Kdr, against Src, against Flt1 and against C-Raf was at most 10 µM in each case.

As to `CCCS(=O)(=O)Nc1ccc(F)c(C(=O)c2c[nH]c3ncc(-c4cnc(OCCCN(C)C)nc4)cc23)c1F` [P-2203, Propane-1-sulfonic acid (3-{5-[2-(3-dimethylamino-propoxy)-pyrimidin-5-yl]-1H-pyrrolo[2,3-b]pyridine-3-carbonyl}-2,4-difluoro-phenyl)-amide], the IC50 at B-Raf, on B-Raf V600E, against Fms, against Kdr, against Kit and against Flt1 was at most 10 µM throughout.

As to `CCCS(=O)(=O)Nc1ccc(F)c(C(=O)c2c[nH]c3ncc(C(=O)NCCO)cc23)c1F` [P-2217, 3-[2,6-Difluoro-3-(propane-1-sulfonylamino)-benzoyl]-1H-pyrrolo[2,3-b]pyridine-5-carboxylic acid (2-hydroxy-ethyl)-amide], the IC50 on B-Raf, at B-Raf V600E, against Kdr, at Src, against Flt1 and against C-Raf was at most 10 µM in each case.

As for `CCCS(=O)(=O)Nc1ccc(F)c(C(O)c2c[nH]c3ncc(-c4ccc(C(=O)NCC)nc4)cc23)c1F` (centres unmarked) [P-2150, 5-(3-{[2,6-Difluoro-3-(propane-1-sulfonylamino)-phenyl]-hydroxy-methyl}-1H-pyrrolo[2,3-b]pyridin-5-yl)-pyridine-2-carboxylic acid ethylamide], the IC50 on B-Raf, at B-Raf V600E, against Kdr, against Src, against Flt1 and against C-Raf was at most 10 µM each time.

With `CCCS(=O)(=O)Nc1ccc(F)c(C(=O)c2c[nH]c3ncc(C(=O)NC)cc23)c1F` [P-2200, 3-[2,6-Difluoro-3-(propane-1-sulfonylamino)-benzoyl]-1H-pyrrolo[2,3-b]pyridine-5-carboxylic acid methylamide], the half-inhibitory concentration (IC50) at B-Raf, on B-Raf V600E, against Fms, against Kdr, on Kit and against Flt1 was at most 10 µM in each case. The same molecule returned an IC50 on C-Raf of at most 10 µM.

On to `O=C(c1c(F)ccc(NS(=O)(=O)c2ccc(C(F)(F)F)cc2)c1F)c1c[nH]c2ncc(Cl)cc12` [P-1021 arginine complex, N-[3-(5-chloro-1H-pyrrolo[2,3-b]pyridine-3-carbonyl)-2,4-difluoro-phenyl]-4-trifluoromethyl-benzenesulfonamide], for which the AUC/dose result in data set [1] (P-1021 arginine complex dosed at 400 mg per dog (Table 6B, Table 7B), typical value) is recorded as “greater than 12,000 (ng*hr/mL)/(mg/kg)”. Besides, the “AUC∞/dose” value was 34,693 (ng*hr/mL)/(mg/kg) in data set [1] (setting [2]); 22,480 (ng*hr/mL)/(mg/kg) in [1] (setting [3]); 12,120 (ng*hr/mL)/(mg/kg) in data set [1] (setting [4]); 11,247 (ng*hr/mL)/(mg/kg) in data set [1] (setting [5]); 7,457 (ng*hr/mL)/(mg/kg) in data set [1] (setting [6]); 3,883 (ng*hr/mL)/(mg/kg) in data set [1] (setting [7]). For the same molecule, in data set [1] (setting [8]), the “AUC∞/dose” value is 16,850 (ng*hr/mL)/(mg/kg). The Cmax/dose in data set [1] (setting [2]) is 810 (ng/mL)/(mg/kg); in [1] (setting [3]), 960 (ng/mL)/(mg/kg); in data set [1] (setting [4]), 455 (ng/mL)/(mg/kg); in [1] (setting [5]) it was 208 (ng/mL)/(mg/kg); in data set [1] (setting [6]), 107 (ng/mL)/(mg/kg); in data set [1] (setting [7]), 178 (ng/mL)/(mg/kg). Moreover, the Cmax/dose in data set [1] (setting [8]) is 830.5 (ng/mL)/(mg/kg).

As to `O=C(c1c(F)ccc(NS(=O)(=O)c2ccc(C(F)(F)F)cc2)c1F)c1c[nH]c2ncc(Cl)cc12` [Free base, N-[3-(5-chloro-1H-pyrrolo[2,3-b]pyridine-3-carbonyl)-2,4-difluoro-phenyl]-4-trifluoromethyl-benzenesulfonamide], the “AUC∞/dose” value in data set [1] (setting [2]) is recorded as 5,270 (ng*hr/mL)/(mg/kg); in data set [1] (setting [8]), 8,031 (ng*hr/mL)/(mg/kg). In addition, the Cmax/dose in [1] (setting [2]) is listed as 482 (ng/mL)/(mg/kg); in data set [1] (setting [8]), 581.3 (ng/mL)/(mg/kg).

On to `O=C(c1c(F)ccc(NS(=O)(=O)c2ccc(C(F)(F)F)cc2)c1F)c1c[nH]c2ncc(Cl)cc12` [Sulfate, N-[3-(5-chloro-1H-pyrrolo[2,3-b]pyridine-3-carbonyl)-2,4-difluoro-phenyl]-4-trifluoromethyl-benzenesulfonamide], for which, in data set [1] (setting [8]), the “AUC∞/dose” value was 5,067 (ng*hr/mL)/(mg/kg) and the Cmax/dose is recorded as 181.5 (ng/mL)/(mg/kg).

With `CCCS(=O)(=O)Nc1ccc(F)c(C(=O)c2c[nH]c3ncc(-c4ccc(S(=O)(=O)CC)cc4)cc23)c1F` [P-2218, Propane-1-sulfonic acid {3-[5-(4-ethanesulfonyl-phenyl)-1H-pyrrolo[2,3-b]pyridine-3-carbonyl]-2,4-difluoro-phenyl}-amide], the IC50 on B-Raf, at B-Raf V600E, against Fms, on Kdr, at Kit and against Flt1 was at most 10 µM in each case. In addition, the IC50 at C-Raf is at most 10 µM.
